Among the data in patent US11058678B2 (Enanta Pharmaceuticals, Inc., priority 2018, dated 2021) are EC50 values, retold here.

This experiment concerns HBV (2.2.15 cells). Briefly: Antiviral activity in 2.2.15 cells: reduction of viral product accumulation (qPCR of lysates, HBsAg or HBeAg ELISA). Type of experiment: cell-based, hepatitis B virus (HBV). To be noted: Hepatitis B virus, 120 h, day 5 post treatment, 50% reduction of viral product accumulation in lysates or supernatants vs no drug controls, readout (qPCR, HBsAg, HBeAg) not specified. In a few lines:
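HBV-producing 2.2.15 cells, 35,000/well, treated with 5-fold serial compound dilutions at 0.5% final DMSO for 5 days. Lysate HBV DNA by qPCR or supernatant HBsAg/HBeAg by ELISA; EC50 is 50% reduction versus no-drug control, binned A<0.1 μM, B 0.1-1 μM, C>1 μM.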
In turn, `Cn1ccc(-c2cc3c(c4c2OCC4)C[C@@H](C(C)(C)C)n2cc(C(=O)O)c(=O)cc2-3)n1` [Example 70, (S)-5-(tert-butyl)-12-(1-methyl-1H-pyrazol-3-yl)-9-oxo-2,3,4,9-tetrahydro-5H-furo[3,2-f]pyrido[2,1-a]isoquinoline-8-carboxylic Acid] registered an EC50 of under 100 nM.

As to `Cn1ccc(-c2cc3c(c4c2OC(C)(C)C4)C[C@@H](C(C)(C)C)n2cc(C(=O)O)c(=O)cc2-3)n1` [Example 144, (S)-5-(tert-butyl)-2,2-dimethyl-12-(1-methyl-1H-pyrazol-3-yl)-9-oxo-2,3,4,9-tetrahydro-5H-furo[3,2-f]pyrido[2,1-a]isoquinoline-8-carboxylic Acid], the EC50 is over 1000 nM.

`COCCCOc1cc2c(cc1-c1nnnn1C)-c1cc(=O)c(C(=O)O)cn1[C@H](C(C)(C)C)C2` [Example 35, (S)-6-(tert-butyl)-9-(3-methoxypropoxy)-10-(1-methyl-1H-tetrazol-5-yl)-2-oxo-6,7-dihydro-2H-pyrido[2,1-a]isoquinoline-3-carboxylic Acid] gave an EC50 of under 100 nM.

As for `COCCCOc1cc2c(cc1-c1c(C)nn(C)c1C)-c1cc(=O)c(C(=O)O)cn1[C@H](C(C)(C)C)C2` [Example 33, (S)-6-(tert-butyl)-9-(3-methoxypropoxy)-2-oxo-10-(1,3,5-trimethyl-1H-pyrazol-4-yl)-6,7-dihydro-2H-pyrido[2,1-a]isoquinoline-3-carboxylic Acid], the EC50 was under 100 nM.

`CC(C)[C@@H]1Cc2c(cc(-c3cccnc3)c3c2CCO3)-c2cc(=O)c(C(=O)O)cn21` [Example 105, (S)-5-isopropyl-9-oxo-12-(pyridin-3-yl)-2,3,4,9-tetrahydro-5H-furo[3,2-f]pyrido[2,1-a]isoquinoline-8-carboxylic Acid] showed an EC50 of under 100 nM.

In turn, `CC(C)[C@@H]1Cc2c(cc(-c3cnco3)c3c2CCO3)-c2cc(=O)c(C(=O)O)cn21` [Example 91, (S)-5-isopropyl-12-(oxazol-5-yl)-9-oxo-2,3,4,9-tetrahydro-5H-furo[3,2-f]pyrido[2,1-a]isoquinoline-8-carboxylic Acid] had an EC50 of under 100 nM.

`COCCCOc1cc2c(cc1-n1ccc3ccccc31)-c1cc(=O)c(C(=O)O)cn1[C@H](C(C)(C)C)C2` [Example 52, (S)-6-(tert-butyl)-10-(1H-indol-1-yl)-9-(3-methoxypropoxy)-2-oxo-6,7-dihydro-2H-pyrido[2,1-a]isoquinoline-3-carboxylic Acid] had an EC50 of under 100 nM.

In turn, `COCCCOc1cc2c(cc1-c1ccccc1F)-c1cc(=O)c(C(=O)O)cn1[C@H]1[C@@H]2COC1(C)C` [Example 136, (3aS,12bR)-10-(2-fluorophenyl)-11-(3-methoxypropoxy)-3,3-dimethyl-7-oxo-3,3a,7,12b-tetrahydro-1H-furo[3,4-c]pyrido[2,1-a]isoquinoline-6-carboxylic Acid] came in with an EC50 of under 100 nM.

`COCCCOc1cc2c(cc1-c1cccs1)-c1cc(=O)c(C(=O)O)cn1[C@H]1[C@@H]2COC1(C)C` [Example 142, (3aS,12bR)-11-(3-methoxypropoxy)-3,3-dimethyl-7-oxo-10-(thiophen-2-yl)-3,3a,7,12b-tetrahydro-1H-furo[3,4-c]pyrido[2,1-a]isoquinoline-6-carboxylic Acid] yielded an EC50 of under 100 nM.

In the case of `CC(C)[C@@H]1Cc2c(cc(-c3cnsc3)c3c2CCO3)-c2cc(=O)c(C(=O)O)cn21` [Example 103, (S)-5-isopropyl-12-(isothiazol-4-yl)-9-oxo-2,3,4,9-tetrahydro-5H-furo[3,2-f]pyrido[2,1-a]isoquinoline-8-carboxylic Acid], the EC50 is under 100 nM.

Compound `COCCCOc1cc2c(cc1-c1ccc(OC(C)C)cc1)-c1cc(=O)c(C(=O)O)cn1[C@H](C(C)(C)C)C2` [Example 38, (S)-6-(tert-butyl)-10-(4-isopropoxyphenyl)-9-(3-methoxypropoxy)-2-oxo-6,7-dihydro-2H-pyrido[2,1-a]isoquinoline-3-carboxylic Acid] showed an EC50 of over 1000 nM.
